# Results reported in patent US20090318424A1, “NOVEL COMPOUNDS” (priority 2006, published 2009).
# Structures can show the parent of a compound that is named as a salt.
# System: not given
# Test: not given
# Conditions: not given
row,melting point,Structure (SMILES)
1,225 to 228 °C (dec.),"COc1nc(-c2cc(NC(=O)c3ccsc3)ccc2C)c2c(n1)N(c1c(F)cccc1F)C(=O)NC2 [10(e), N-{3-[8-(2,6-difluorophenyl)-2-(methyloxy)-7-oxo-5,6,7,8-tetrahydropyrimido-[4,5-d]pyrimidin-4-yl]-4-methylphenyl}-3-thiophenecarboxamide]"
2,210 to 266 °C (dec.),"Cc1ccc(C(=O)NCc2ccccc2)cc1-c1nc(N2CCC(N)CC2)nc2c1CNC(=O)N2c1c(F)cccc1F [15(c), 3-[2-(4-Amino-1-piperidinyl)-8-(2,6-difluorophenyl)-7-oxo-5,6,7,8-tetrahydropyrimido[4,5-d]pyrimidin-4-yl]-4-methyl-N-(phenylmethyl)benzamide]"
3,157 to 161 °C,"CNCCNc1nc(-c2cc(C(=O)NCc3ccccc3)ccc2C)c2c(n1)N(c1c(F)cccc1F)C(=O)NC2 [19(b), 3-(8-(2,6-Difluorophenyl)-2-{[2-(methylamino)ethyl]amino}-7-oxo-5,6,7,8-tetrahydropyrimido[4,5-d]pyrimidin-4-yl)-4-methyl-N-(phenylmethyl)benzamide]"
4,172 to 176 °C (dec.),"Cc1ccc(C(=O)NCc2ccccc2)cc1-c1nc(NC2CCNCC2)nc2c1CNC(=O)N2c1c(F)cccc1F [21(b), 3-[8-(2,6-Difluorophenyl)-7-oxo-2-(4-piperidinylamino)-5,6,7,8-tetrahydropyrimido[4,5-d]pyrimidin-4-yl]-4-methyl-N-(phenylmethyl)benzamide]"

# System: influx of neutrophils to the lung in LPS-challenged rats
# Test: Rat LPS neutrophilia model
# Assay type: in vivo
# Conditions: LPS aerosol 100 ug/ml 15 min, lavage 4 hours later; in at least one of the range of conditions tested
# Description: The effect of compounds on the influx of neutrophils to the lung in LPS-challenged rats is evaluated as follows. The test compound is suspended in one of the following solutions: 0.5% tween 80/PBS, 0.5% tween 80/saline, 10% EtOH/saline (with pH adjusted to 2.0, or 8.0 with HCl, or unadjusted), Saline @ pH 2.0, 6.5 or 8.0, 0.5% Tragacanth, 1% DMSO/20% Encapsin/Saline, or acidified 5% Tragacanth. The suspension process may be aided by the use of a glass homogenizer. For intratracheal administration, the animals are anesthetized with inhaled isoflurane and placed in a supine position, the trachea is intubated with a steel gavage needle (1.5 inch, 22 gauge, small ball) or a Penn-Century Microsprayer Aerosolizer (model IA-IB) and 200 ul of dosing solution is delivered. The animals are visually monitored during the recovery process, which typically occurs within two minutes.
# Rats treated with compound or vehicle (15 min-24 hours pretreatment) are exposed to an LPS aerosol (100 ug/ml) for 15 min. Four hours later the rats are euthanized with pentobarbital (100 mg/kg, i.p.) and the airways are lavaged with 5 washes of 5 ml of phosphate buffered saline. The harvested cells are stained (Diffquick) and counted to determine total and differential cell data. In a typical study, macrophages represent 40-70% of the total cells, and polymorphonuclear cells 30-60% of the total cells. Inhibition of neutrophil levels relative to no compound controls is calculated based on the differential counts.
# The assay has varying conditions, such as concentration, pretreat time, form of the compound (crystalline, amorphous, salts, micronised), and a wet or dry application of the compound. The data is obtained as % inhibition using a particular concentration and pretreat time.
row,Structure (SMILES),inhibition of neutrophilia
1,"CN(C)CCNc1nc(-c2cccc(C(=O)Nc3nccs3)c2)c2c(n1)N(c1c(F)cccc1F)C(=O)NC2 [Example 92, 3-(8-(2,6-difluorophenyl)-2-{[2-(dimethylamino)ethyl]amino}-7-oxo-5,6,7,8-tetrahydropyrimido[4,5-d]pyrimidin-4-yl)-N-1,3-thiazol-2-ylbenzamide]",statistically significant inhibition
2,"CN(C)CCNc1nc(-c2cccc(C(=O)Nc3ccc(F)cc3)c2)c2c(n1)N(c1c(F)cccc1F)C(=O)NC2 [Example 93, 3-(8-(2,6-difluorophenyl)-2-{[2-(dimethylamino)ethyl]amino}-7-oxo-5,6,7,8-tetrahydropyrimido[4,5-d]pyrimidin-4-yl)-N-(4-fluorophenyl)benzamide]",statistically nonsignificant inhibition
3,"Cc1c(F)cc(C(=O)Nc2ccccc2)cc1-c1nc(NCCN(C)C)nc2c1CNC(=O)N2c1c(F)cccc1F [Example 112, 3-(8-(2,6-difluorophenyl)-2-{[2-(dimethylamino)ethyl]amino}-7-oxo-5,6,7,8-tetrahydropyrimido[4,5-d]pyrimidin-4-yl)-5-fluoro-4-methyl-N-phenylbenzamide]",statistically significant inhibition
4,"Cc1ccc(C(=O)Nc2nccs2)cc1-c1nc(NCCCN(C)C)nc2c1CNC(=O)N2c1c(F)cccc1F [Example 119, 3-(8-(2,6-difluorophenyl)-2-{[3-(dimethylamino)propyl]amino}-7-oxo-5,6,7,8-tetrahydropyrimido[4,5-d]pyrimidin-4-yl)-4-methyl-N-1,3-thiazol-2-ylbenzamide]",statistically significant inhibition
5,"CCN(CC)CCCNc1nc(-c2cc(C(=O)Nc3nccs3)ccc2C)c2c(n1)N(c1c(F)cccc1F)C(=O)NC2 [Example 120, 3-[2-{[3-(diethylamino)propyl]amino}-8-(2,6-difluorophenyl)-7-oxo-5,6,7,8-tetrahydropyrimido[4,5-d]pyrimidin-4-yl]-4-methyl-N-1,3-thiazol-2-ylbenzamide]",statistically significant inhibition
6,"Cc1ccc(C(=O)Nc2nccs2)cc1-c1nc(N(C)CCCN(C)C)nc2c1CNC(=O)N2c1c(F)cccc1F [Example 124, 3-{8-(2,6-difluorophenyl)-2-[[3-(dimethylamino)propyl](methyl)amino]-7-oxo-5,6,7,8-tetrahydropyrimido[4,5-d]pyrimidin-4-yl}-4-methyl-N-1,3-thiazol-2-ylbenzamide]",statistically nonsignificant inhibition
7,"CSc1ccc(NC(=O)c2ccc(C)c(-c3nc(NCCN(C)C)nc4c3CNC(=O)N4c3c(F)cccc3F)c2)cc1 [Example 127, 3-(8-(2,6-difluorophenyl)-2-{[2-(dimethylamino)ethyl]amino}-7-oxo-5,6,7,8-tetrahydropyrimido[4,5-d]pyrimidin-4-yl)-4-methyl-N-[4-(methylthio)phenyl]benzamide]",statistically significant inhibition
8,"Cc1ccc(C(=O)Nc2nccs2)cc1-c1nc(NC[C@H](C)O)nc2c1CNC(=O)N2c1c(F)cccc1F [Example 134, 3-(8-(2,6-difluorophenyl)-2-{[(2S)-2-hydroxypropyl]amino}-7-oxo-5,6,7,8-tetrahydropyrimido[4,5-d]pyrimidin-4-yl)-4-methyl-N-1,3-thiazol-2-ylbenzamide]",statistically nonsignificant inhibition
9,"Cc1ccc(C(=O)Nc2ccccc2)cc1-c1nc(NCCN(C)C)nc2c1CNC(=O)N2c1c(F)cccc1F [Example 137, 3-(8-(2,6-difluorophenyl)-2-{[2-(dimethylamino)ethyl]amino}-7-oxo-5,6,7,8-tetrahydropyrimido[4,5-d]pyrimidin-4-yl)-4-methyl-N-phenylbenzamide]",statistically significant inhibition
10,"Cc1ccc(C(=O)Nc2ccc(F)c(F)c2)cc1-c1nc(NCCN(C)C)nc2c1CNC(=O)N2c1c(F)cccc1F [Example 138, N-(3,4-difluorophenyl)-3-(8-(2,6-difluorophenyl)-2-{[2-(dimethylamino)-ethyl]amino}-7-oxo-5,6,7,8-tetrahydropyrimido[4,5-d]pyrimidin-4-yl)-4-methylbenzamide]",statistically significant inhibition
11,"COc1ccc(NC(=O)c2ccc(C)c(-c3nc(NCCN(C)C)nc4c3CNC(=O)N4c3c(F)cccc3F)c2)cn1 [Example 140, 3-(8-(2,6-difluorophenyl)-2-{[2-(dimethylamino)ethyl]amino}-7-oxo-5,6,7,8-tetrahydropyrimido[4,5-d]pyrimidin-4-yl)-4-methyl-N-[6-(methyloxy)-3-pyridinyl]benzamide]",statistically significant inhibition
12,"CCc1ccc(C(=O)Nc2nccs2)cc1-c1nc(NCCN(C)C)nc2c1CNC(=O)N2c1c(F)cccc1F [Example 144, 3-(8-(2,6-difluorophenyl)-2-{[2-(dimethylamino)ethyl]amino}-7-oxo-5,6,7,8-tetrahydropyrimido[4,5-d]pyrimidin-4-yl)-4-ethyl-N-1,3-thiazol-2-ylbenzamide Trilfluoroacetate]",statistically significant inhibition
13,"Cc1ccc(C(=O)NC(C)C)cc1-c1nc(N2CCCN(C)CC2)nc2c1CNC(=O)N2c1c(F)cccc1F [Example 179, 3-[8-(2,6-difluorophenyl)-2-(4-methylhexahydro-1H-1,4-diazepin-1-yl)-7-oxo-5,6,7,8-tetrahydropyrimido[4,5-d]pyrimidin-4-yl]-4-methyl-N-(1-methylethyl)benzamide Trifluoroacetate]",statistically nonsignificant inhibition
14,"Cc1ccc(C(=O)NC(C)C)cc1-c1nc(NC2CCN(Cc3ccccc3)CC2)nc2c1CNC(=O)N2c1c(F)cccc1F [Example 200, 3-(8-(2,6-difluorophenyl)-7-oxo-2-{[1-(phenylmethyl)-4-piperidinyl]amino}-5,6,7,8-tetrahydropyrimido[4,5-d]pyrimidin-4-yl)-4-methyl-N-(1-methylethyl)benzamide]",statistically significant inhibition
